Values of other authors, collected in PubChem BioAssay AID493017 (Abbott Labs, 2003).

Biological target: Cyclin-dependent kinase 2 (Homo sapiens) (UniProt P24941)
Assay: PubChem AID 493017
Settings: WOMBAT literature affinities, multiple human targets; CDK2; gene CDK2; NCBI gene 1017

`O=C(Cc1nnc(NC(=O)c2ccc([N+](=O)[O-])c(Cl)c2)s1)NNC(=O)c1ccc([N+](=O)[O-])c(Cl)c1` and `O=C(Nc1ccc(NC(=O)c2ccccc2[N+](=O)[O-])cc1)c1ccc(NC(=O)c2ccccc2[N+](=O)[O-])cc1` are within 1.5-fold of each other in IC50: 1.21 µM for the first, 1.37 µM for the second.

`COC(=O)c1cc(=O)n2c(nc3cc(C(F)(F)F)ccc32)s1` and `COC(=O)c1c(NC(=O)Nc2ccc(Cl)cc2)sc2c1CCN(c1ncc(C(F)(F)F)cc1Cl)C2` are within 1.5-fold of each other in IC50: 7.77 µM for the first, 8.89 µM for the second.

`O=[N+]([O-])c1ccc(S(=O)(=O)c2ccc(Oc3ccc(S(=O)(=O)c4ccc([N+](=O)[O-])cc4)cc3)cc2)cc1` and `O=C(Nc1cc([N+](=O)[O-])ccc1O)c1ccc(Oc2ccc(C(=O)Nc3cc([N+](=O)[O-])ccc3O)cc2)cc1` are within 1.5-fold of each other in IC50: 1.52 µM for the first, 1.15 µM for the second.

Compared with `Oc1cc(O)cc(C=Cc2ccc(O)c(O)c2)c1`, `CCOC(=O)Nc1nc2ccc(C=Cc3ccc(C)cc3)cc2[nH]1` is 2.8-fold higher in IC50: 2.58 µM for the first, 7.35 µM for the second. The first is the more potent here.

Going from `N#CC(=Cc1cc(O)c(O)c(O)c1)C(N)=C(C#N)C#N` to `Cc1nc(N=C(N)NC(=O)Nc2ccc(Cl)cc2)sc1Br`, the IC50 rises from 1.48 µM to 2.9 µM (2-fold).

Going from `O=C(Nc1ccc(Cl)cc1)c1cc(Br)ccc1NS(=O)(=O)c1ccc(Br)c2nsnc12` to `O=C1c2ccc([N+](=O)[O-])c3c([N+](=O)[O-])ccc(c23)C(=O)N1c1ccc(S(=O)(=O)Nc2cc(Cl)ccc2O)cc1`, the IC50 falls from 3.66 µM to 1.41 µM (2.6-fold).

`CCCCCOC(=O)c1ccc(N2C(=O)c3ccc(Oc4ccc(NC(C)=O)cc4)cc3C2=O)cc1` and `C#Cc1cccc(N2C(=O)c3ccc(Oc4cccc(N5C(=O)c6ccc([N+](=O)[O-])cc6C5=O)c4)cc3C2=O)c1` are within 1.5-fold of each other in IC50: 3.3 µM for the first, 2.83 µM for the second.

Compared with `Cc1cccc(NC(=O)Nc2ccc(Cc3ccc(NC(=O)Nc4cccc(C)c4)cc3)cc2)c1`, `Cc1ccc(C(=O)Nc2ccc3c(c2)Cc2cc(NC(=O)c4ccc(C)cc4)ccc2-3)cc1` is 1.6-fold lower in IC50: 4.82 µM for the first, 2.96 µM for the second.

First: Nc1nc(NS(=O)(=O)c2ccc(C(F)(F)F)cc2)cc(-c2ccc(F)cc2)n1
Second: OCCNc1cc(-c2[nH]c3nccnc3c2-c2ccc(F)cc2)ccn1
The IC50 of the first is 1.9-fold lower: 1.86 µM for the first, 3.5 µM for the second. The first is the more potent here.

`CC(=O)c1c(O)c(C)c(O)c(Cc2c(O)c3c(c(C(=O)C=Cc4ccccc4)c2O)OC(C)(C)C=C3)c1O` and `O=C(Nc1ccc([N+](=O)[O-])cc1)C(Cc1ccccc1)N1C(=O)c2cccc3cccc(c23)C1=O` (centres undefined) are within 1.5-fold of each other in IC50: 4.55 µM for the first, 4.19 µM for the second.

Compared with `Cc1cc(Cc2ccc(NC(N)=S)c(C)c2)ccc1NC(N)=S`, `COC(=O)NC1=Nc2cccc3cccc(c23)N1` is 1.7-fold higher in IC50: 2.65 µM for the first, 4.39 µM for the second. The first is the more potent here.

`c1cnc2nc(-c3ccncc3)[nH]c2c1` and `c1ccc2c(c1)nc(SC1=NCCCN1)c1c3ccccc3[nH]c21` are within 1.5-fold of each other in IC50: 3 µM for the first, 2.16 µM for the second.

`Cc1ccc(Nc2nc(-c3cc(C(C)(C)C)c(O)c(C(C)(C)C)c3)c(C)s2)cc1` and `CN1CCc2nc(SCc3ccc(C(C)(C)C)cc3)c(C#N)c(-c3cccs3)c2C1` are within 1.5-fold of each other in IC50: 1.22 µM for the first, 1.12 µM for the second.

First: Cc1cc(Nc2ccc3[nH]ncc3c2)nc(NCC2CC2)n1
Second: CCC(C)c1cc(N)nc2nc3cc(C)c(C)cc3n12 (centres undefined)
The IC50 of the first is 1.6-fold lower: 4.1 µM for the first, 6.62 µM for the second.

Compared with `O=C(Nc1ccccc1)Nc1sccc1OCc1ccc(Cl)cc1Cl`, `O=C(CSc1nnc(SCC(=O)Nc2nc(-c3ccccc3)cs2)s1)Nc1nc(-c2ccccc2)cs1` is 2.6-fold lower in IC50: 3.37 µM for the first, 1.31 µM for the second. The second is the more potent here.

First: O=C(Nc1cccc2cccc(NC(=O)c3ccc([N+](=O)[O-])cc3)c12)c1ccc([N+](=O)[O-])cc1
Second: Nc1ccc(C(=O)Nc2ccc(-c3nc4ccc(NC(=O)c5ccc(N)cc5)cc4[nH]3)cc2)cc1
The IC50 of the first is 1.5-fold lower: 2.94 µM for the first, 4.51 µM for the second. The first is the more potent here.

`N#Cc1cnc(NC2CCCCC2)nc1N` and `S=c1[nH]c(=S)c2c3c(sc2[nH]1)CN(Cc1ccccc1)CC3` are within 1.5-fold of each other in IC50: 1.1 µM for the first, 1.13 µM for the second.
